Entries after “also recorded” stand apart in the source; their conditions may differ.
Assays:
[1] = biological target: T1, ribonucleotide reductase (Homo sapiens, UniProt P23921); assay: CDP reductase assay on HCT8 cell extracts incubated with FdUMP; assay type: biochemical
T1 construct: 50 mM HEPES (pH 7.2), and 100 μl extract (0.2-0.7 mg protein); endogenous in cells
T1 sequence (P23921 1-792): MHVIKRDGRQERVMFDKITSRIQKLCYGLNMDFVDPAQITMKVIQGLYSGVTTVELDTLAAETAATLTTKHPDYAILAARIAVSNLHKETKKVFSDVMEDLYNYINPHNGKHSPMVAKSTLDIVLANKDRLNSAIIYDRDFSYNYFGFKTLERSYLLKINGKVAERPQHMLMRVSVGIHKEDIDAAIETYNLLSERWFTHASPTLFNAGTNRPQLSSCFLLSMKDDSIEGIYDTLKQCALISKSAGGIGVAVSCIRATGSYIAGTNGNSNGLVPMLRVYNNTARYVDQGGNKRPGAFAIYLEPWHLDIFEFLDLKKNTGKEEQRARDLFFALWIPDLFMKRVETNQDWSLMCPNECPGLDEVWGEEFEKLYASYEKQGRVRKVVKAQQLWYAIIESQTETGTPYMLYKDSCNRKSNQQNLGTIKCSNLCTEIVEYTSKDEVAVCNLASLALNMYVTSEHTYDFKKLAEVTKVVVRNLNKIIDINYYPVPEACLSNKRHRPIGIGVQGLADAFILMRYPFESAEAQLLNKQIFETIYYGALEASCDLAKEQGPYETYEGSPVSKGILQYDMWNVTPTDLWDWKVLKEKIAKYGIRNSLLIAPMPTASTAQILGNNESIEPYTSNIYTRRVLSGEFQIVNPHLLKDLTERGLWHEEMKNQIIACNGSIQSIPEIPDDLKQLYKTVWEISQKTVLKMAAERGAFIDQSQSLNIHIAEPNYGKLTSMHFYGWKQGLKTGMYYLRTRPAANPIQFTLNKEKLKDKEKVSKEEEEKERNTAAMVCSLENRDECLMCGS
Description: Cells grown in 250 cm^2-flasks were trypsinized and washed twice in ice-cold PBS. Cells were centrifuged at 300×g for 5 min at 4° C. and resuspended in 3 volumes of Low Salt Extraction Buffer (10 mM HEPES, pH 7.2, 2 mM DTT). Viable cell count of the resuspension was determined by trypan blue exclusion. After 30 min incubation on ice, the cell suspension was drawn 10× through a 28G½ needle. The crude homogenate was centrifuged at 100,000×g for 60 min at 4° C. to remove cellular debris. The supernatant fraction was dialyzed against 1,000 volumes of the Low Salt Extraction Buffer for 4 hours with one buffer change after 2 hours using dialysis cassettes with a molecular weight cut-off of 10,000 (Slide-A-Lyzer Dialysis Cassettes, Pierce, Rockford, Ill.). The dialyzed extract was snap-frozen in liquid nitrogen and stored at −80° C. until analysis. All extraction procedures were performed at 4° C.
Activity of ribonucleotide reductase was determined by a modified method of Steeper and Stuart (Steeper et al., Anal. Biochem. 34:123-130, 1970). Conversion of CDP to dCDP was monitored using [^14C]CDP (53 mCi/mmol, Movarek Biochemicals, Inc.) as substrate and rattlesnake venom from Crotalus adamanteus (Sigma) to hydrolyze nucleotides to nucleosides. The reaction mixture contained the following concentrations of ingredients in a final volume of 150 μl: 40 μM CDP, 10 μM [^14C]CDP (0.08 μCi), 6 mM DTT, 4 mM magnesium acetate, 2 mM ATP, 50 mM HEPES (pH 7.2), and 100 μl extract (0.2-0.7 mg protein). The enzyme reaction was carried out for 30 min at 37° C. and stopped by incubation at 100° C. for 4 min. Nucleotides were hydrolyzed by adding 50 μl carrier dCMP (6 mM dCMP, 2 mM MgCl2, 6 mM Tris-HCl, pH 8.8) and 25 μl snake venom suspension (50 mg/ml). After 3 hours incubation at 37° C., the reaction mixture was heat-inactivated by boiling for 4 min. Heat-precipitated material was removed by centrifugation at 14,000×g for 10 min at room temperature. [^14C]deoxycytosine was separated from [^14C]cytosine by covalent chromatography using phenylboronic acid-columns (BondElut PBA, Varian, Harbor City, Calif.). Triethenolamine Buffer (pH 10) was added to the supernatant fraction to a final concentration of 0.4 M and 1 ml of this mixture was applied to the column. Fractions were collected and measured for radioactivity by liquid scintillation spectrometry (LS 60001C Liquid Scintillation System, Beckman Instruments, Inc., Fullerton, Calif.). One unit of enzyme activity was defined as conversion of 1 nmol CDP to the product dCDP in 1 hour at 37° C.

[2] = tested on: MKN-45-P cells; assay: MTT cytotoxicity with Chou-Talalay combination analysis; assay type: cell-based, human
Description: (§1) Cytotoxicity assays were performed by plating 1×10^4 cells/well into 96 well assay plates (Costar, Corning Inc., Corning, N.Y.). […] These ratios were determined by estimating the ED50 for each drug in initial experiments and by using these doses to determine the ratio of combination therapy. Percent cell survival for each group (vs. controls) was calculated 5d after treatment using a standard MTT (3-(4,5-dimethylthiazol-2-yl)-2,5-diphenyl-2H tetrazolium bromide) bioassay. A micro-plate reader was used to evaluate for the presence of the MTT-formazan product at 550 nm. Background optical density (OD) was subtracted from the OD readings of all samples. Cell viability was then calculated by dividing the mean absorbance (OD)(n=6) of the treated wells by the mean absorbance (OD)(n=6) of the untreated (control) wells.
(§2) This method defines the expected additive effect of two agents and then quantifies synergism or antagonism by determining how much the combination effect differs from the expected additive effect. The equations and computer software used for data analysis have been described in detail elsewhere (Chou, T., editors. Academic Press, New York. 61-102, 1991; Chou et al., Advances in Enzyme Regulation 22:27-55, 1984; Chou et al., Manual and Software for IBM-PC 1987; Chou, J., Academic Press, New York 223-244, 1991). The combination index equation is used to precisely analyze two-drug combinations. Interpretation of CI values are defined such that a CI=1 indicates an additive effect, while a CI<1 and a CI>1 indicate synergism and antagonism, respectively. Cytotoxicity data obtained from the experiments described above were used in the Chou-Talalay analysis. […] Based on the actual experimental data, computer software was used to calculate serial CI values over an entire range of effect levels (Fa) from 5-95%. […] Data were also analyzed by the isobologram technique, which is dose-oriented. The axes on an isobologram represent the doses of each drug. For any given Fa value, two points on the x and y axes are chosen that correspond to the doses of each drug necessary to generate that given Fa value. The straight line drawn between these two points corresponds to the possible combination doses that would be required to generate the same Fa value, assuming that the interaction between the two drugs is strictly additive. The observed experimental concentrations actually required to achieve a given Fa value are then added to the plot. If these points lie on the straight line then the effect is additive at that Fa value. If the point lies to the left of the straight line then the effect is synergistic, and if the point lies to the right of the straight line then the effect is antagonistic at that Fa value. Another calculation available using the combination index method is the dose-reduction index (DRI). The DRI is a determination of the fold-dose reduction allowed for each drug when given in synergistic combination, as compared to the concentration of single agent therapy needed to achieve the same effect level. A DRI>1 signifies a favorable reduction in toxicity while still maintaining therapeutic efficacy.

[3] = tested on: OCUM-2MD3 cells; assay: as above; assay type: cell-based, human
Description: as §1, §2

[4] = tested on: GADD34 mRNA (OCUM cells); assay: Northern hybridization for GADD34 in cells treated with MMC; assay type: cell-based, human; details: for Increase in GADD34 band intensity vs negative control: high dose MMC 0.04 μg/cc; for GADD34 band: low dose MMC 0.005 μg/cc
Description: Cells were cultured with 12 cc culture media containing 0 μg/ml (untreated), 0.005 μg/ml (low dose), or 0.04 μg/ml (high dose) of Mitomycin-C (Bristol Laboratories, Princeton, N.J.). Cells were harvested by trypsinization at 24 and 48 hours. Total RNA was prepared using a total RNA isolation system (Promega, Madison, Wis.) and RNA content was measured by optical density at 260 nm. 7 μg of RNA per sample was loaded in a denaturing 1.2% agarose gel. Electrophoretic separation, RNA transfer to a nitrocellulose membrane (Intergen, Purchase, N.Y.), hybridization (50% formamide at 40° C.), and autoradiographic identification were done by standard techniques. The cDNA clone GADD34 containing a 2.4 kb insert was provided by Dr. A. Fomace, Jr, and the cDNA clone a-actin containing a 1.1 kb insert was acquired from ATCC (Manassas, Va.)(Hollander et al., J. Biol. Chem. 272:13731-13737, 1997). cDNA that had been excised from plasmid vectors was labelled with [^32P]dCTP by the random-primer labelling method (Stratagene, La Jolla, Calif.).

[5] = tested on: OCUM-2MD3 peritoneal tumor; assay: Murine xenograft model of gastric carcinomatosis, intraperitoneal treatment; assay type: in vivo, athymic nude mice; details: 0.1 mg/kg MMC i.p., 4 weeks
Text: An established murine xenograft model of gastric carcinomatosis was used as previously described (Bennett et al., Journal of Molecular Medicine 78:166-174, 2000; Yashiro et al., Clin. Exp. Metastasis 14:43-54, 1996). Intraperitoneal (i.p.) injection of 2×10^6 OCUM-2MD3 cells reliably develops disseminated peritoneal tumor that seeds the omentum, small and large bowel mesentery, diaphragm, gonadal fat and hepatic hilum. Macroscopic nodules are present within three days after injection, and the development of overwhelming tumor burden, bloody ascites and cachexia occurs by four weeks post-injection. To assess tumor burden, animals were eviscerated at sacrifice and peritoneal tumor was stripped from associated abdominal organs as previously described. Tumor burden was then assessed by weight.
Animals were all injected i.p. with 2×10^6 OCUM-2MD3 cells and treated 3d later. […] Animals were sacrificed 4 weeks later and tumor burden was assessed as described (Bennett et al., Journal of Molecular Medicine 78:166-174, 2000).

O=c1[nH]c(=O)n([C@H]2C[C@H](O)[C@@H](COP(=O)(O)O)O2)cc1F [FdUMP, 2′-deoxy-5-fluorouridine 5′ monophosphate]
Activity ([1]; 0.001 mM FdUMP): 77.0% | RR activity ([1]; 0.001 mM FdUMP): 0.47 ± 0.02 nmol dCDP / h | inhibition at 1 µM ([1]; 0.001 mM FdUMP): 23% | Activity ([1]; 0.01 mM FdUMP): 73.8% | RR activity ([1]; 0.01 mM FdUMP): 0.45 ± 0.02 nmol dCDP / h | inhibition at 10 µM ([1]; 0.01 mM FdUMP): 26.2% | Activity ([1]; 0.1 mM FdUMP): 70.5% | RR activity ([1]; 0.1 mM FdUMP): 0.43 ± 0.03 nmol dCDP / h | inhibition at 100 µM ([1]; 0.1 mM FdUMP): 29.5% | Activity ([1]; 1 mM FdUMP): 39.3% | RR activity ([1]; 1 mM FdUMP): 0.24 ± 0.02 nmol dCDP / h | RR inhibition in words ([1]; 1 mM FdUMP): Substantial enzyme inhibition | inhibition at 1000 µM ([1]; 1 mM FdUMP): 60.7% | RR activity remaining ([1]; 0.001 to 0.1 mM FdUMP): 80 to 70% | Activity ([1]; 10 mM FdUMP): 22.9% | RR activity ([1]; 10 mM FdUMP): 0.14 ± 0.01 nmol dCDP / h | inhibition at 10000 µM ([1]; 10 mM FdUMP): 77.1%

CO[C@@]12[C@H](COC(N)=O)C3=C(C(=O)C(C)=C(N)C3=O)N1C[C@@H]1N[C@@H]12 [MMC, Mitomycin C]
MMC alone, dose needed to kill fraction affected ([2]; Fa 10%): 0.014 ug/cc | MMC alone, dose needed to kill fraction affected ([2]; Fa 20%): 0.027 ug/cc | MMC alone, dose needed to kill fraction affected ([2]; Fa 30%): 0.040 ug/cc | MMC alone, dose needed to kill fraction affected ([2]; Fa 40%): 0.056 ug/cc | MMC alone, dose needed to kill fraction affected ([2]; Fa 50%): 0.077 ug/cc | MMC alone, dose needed to kill fraction affected ([2]; Fa 60%): 0.105 ug/cc | MMC alone, dose needed to kill fraction affected ([2]; Fa 70%): 0.147 ug/cc | MMC alone, dose needed to kill fraction affected ([2]; Fa 80%): 0.222 ug/cc | MMC alone, dose needed to kill fraction affected ([2]; Fa 90%): 0.413 ug/cc | MMC alone, dose needed to kill fraction affected ([2]; Fa 95%): 0.732 ug/cc | Dose lowering when given as combination therapy ([2]; combination of MMC and G207): 2-9 fold | MMC alone, dose needed to kill fraction affected ([3]; Fa 10%): 0.009 ug/cc | MMC alone, dose needed to kill fraction affected ([3]; Fa 20%): 0.014 ug/cc | MMC alone, dose needed to kill fraction affected ([3]; Fa 30%): 0.017 ug/cc | MMC alone, dose needed to kill fraction affected ([3]; Fa 40%): 0.021 ug/cc | MMC alone, dose needed to kill fraction affected ([3]; Fa 50%): 0.026 ug/cc | MMC alone, dose needed to kill fraction affected ([3]; Fa 60%): 0.031 ug/cc | MMC alone, dose needed to kill fraction affected ([3]; Fa 70%): 0.038 ug/cc | MMC alone, dose needed to kill fraction affected ([3]; Fa 80%): 0.048 ug/cc | MMC alone, dose needed to kill fraction affected ([3]; Fa 90%): 0.070 ug/cc | MMC alone, dose needed to kill fraction affected ([3]; Fa 95%): 0.100 ug/cc | Increase in GADD34 band intensity vs negative control ([4]; 24 hours): 2.49 fold | Increase in GADD34 band intensity vs negative control ([4]; 48 hours): 3.21 fold | GADD34 band ([4]; 24 hours): did not result in upregulation | GADD34 band ([4]; 24 hours, listed as Mitomycin C): did not show any band | GADD34 band ([4]; 48 hours): did not show any GADD34,band; also recorded: failed to demonstrate the presence of GADD34 mRNA | Mean peritoneal tumor burden (±SEM) [5]: 1490 (±310) mg
